Measured values from PMC2746412 (European journal of pharmacology, 2009).
Where two headings read alike, the source gives them in different places.

Key:
GFP-SmSERT-A [1] = target: T1, GFP-SmSERT-A (Schistosoma mansoni, UniProt Q3HL76); assay: cell-based; assay type: cell-based; details: for potency difference versus SmSERTs as compared with hSERT (fold less potent at SmSERTs): SmSERTs (A and B) vs hSERT, from IC50 of Table 1
GFP-SmSERT-B [2] = target: T2, GFP-SmSERT-B (Schistosoma mansoni, UniProt Q3I1M7); assay: cell-based
GFP-hSERT [3] = target: T3, GFP-hSERT (Homo sapiens, UniProt P31645); assay: Inhibition of [3H]-serotonin uptake in transfected COS-7 cells; assay type: cell-based
T3 sequence (P31645 whole entry): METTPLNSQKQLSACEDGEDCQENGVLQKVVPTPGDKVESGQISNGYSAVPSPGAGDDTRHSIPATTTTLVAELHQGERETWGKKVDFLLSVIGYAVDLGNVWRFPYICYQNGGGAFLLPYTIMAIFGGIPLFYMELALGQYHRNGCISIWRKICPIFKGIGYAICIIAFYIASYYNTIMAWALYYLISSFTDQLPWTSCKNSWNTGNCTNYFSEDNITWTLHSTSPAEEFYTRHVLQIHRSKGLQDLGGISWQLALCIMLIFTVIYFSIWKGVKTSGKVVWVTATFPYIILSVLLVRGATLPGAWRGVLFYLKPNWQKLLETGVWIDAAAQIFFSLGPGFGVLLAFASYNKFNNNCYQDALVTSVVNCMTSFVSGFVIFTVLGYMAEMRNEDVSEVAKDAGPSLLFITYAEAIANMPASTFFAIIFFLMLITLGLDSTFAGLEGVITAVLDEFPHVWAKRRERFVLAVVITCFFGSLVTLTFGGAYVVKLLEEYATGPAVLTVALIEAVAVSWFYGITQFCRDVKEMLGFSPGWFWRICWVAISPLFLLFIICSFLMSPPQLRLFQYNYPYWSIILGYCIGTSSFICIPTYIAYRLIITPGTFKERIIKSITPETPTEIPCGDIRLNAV

SmSERT-A = SmSERT-A (Schistosoma mansoni, UniProt Q3HL76); assay: Two-electrode voltage clamp of substrate-elicited currents in Xenopus oocytes; assay type: cell-based; details: for substrate-elicited transport-associated currents, SmSERT-A: voltage-clamped Xenopus oocytes
SmSERT-B = SmSERT-B (Schistosoma mansoni, UniProt Q3I1M7); assay type: cell-based; details: for substrate-elicited transport-associated currents, SmSERT-B: voltage-clamped Xenopus oocytes
GFP-hSERT [4] = target: T3, GFP-hSERT; assay type: cell-based
S. mansoni sporocysts [5] = details: treatment of the sporocyst snail stage; ref Boyle and Yoshino, 2005; cited from earlier work
GFP-SmSERT-A [6] = target: T1, GFP-SmSERT-A; assay: [3H]-serotonin efflux experiment in COS-7 cells
GFP-SmSERT-B [7] = target: T2, GFP-SmSERT-B; assay: [3H]-serotonin efflux experiment in COS-7 cells
GFP-SmSERT-B [8] = target: T2, GFP-SmSERT-B; assay type: cell-based; details: COS-7 cells
GFP-SmSERT-A [9] = target: T1, GFP-SmSERT-A; assay type: cell-based; details: COS-7 cells
S. mansoni sporocysts [10] = details: living sporocysts; ref Boyle et al., 2003; cited from earlier work
S. mansoni adult worms = details: ref Wood and Mansour, 1986, cited from earlier work
Schistosoma infections = details: ref Gryseels et al., 2006; cited from earlier work
[11] = read-out: IC50 for serotonin transporter substrates, SmSERT-A
[12] = read-out: IC50 for serotonin transporter substrates, hSERT
[13] = Imax / (Vmax * Faraday constant), same batches of oocytes

## COC(=O)[C@H]1[C@@H](OC(=O)c2ccccc2)C[C@@H]2CC[C@H]1N2C [Cocaine]
GFP-SmSERT-A [1]
  IC50: 37600 ± 16000 nM
GFP-SmSERT-B [2]
  IC50: 35400 ± 7600 nM

## COC(=O)[C@H]1C(c2ccc(I)cc2)C[C@@H]2CC[C@H]1N2C (some centres unmarked) [RTI-55]
GFP-SmSERT-A [1]
  potency difference versus SmSERTs as compared with hSERT (fold less potent at SmSERTs): 60 fold
GFP-SmSERT-A [1]; read-out: IC50 for inhibiting serotonin uptake, SmSERT-A
  IC50: 600 ± 400 nM
GFP-SmSERT-B [2]; read-out: IC50 for inhibiting serotonin uptake, SmSERT-B, COS-7 cells, 100 nM [3H]serotonin, 10 min, mean ± SD
  IC50: 600 ± 400 nM
GFP-hSERT [3]; read-out: IC50 for inhibiting serotonin uptake, hSERT
  IC50: 10 ± 10 nM

## NCCc1c[nH]c2ccccc12 [Tryptamine]
SmSERT-A
  substrate-elicited transport-associated currents, SmSERT-A: elicits clear transport associated currents
GFP-SmSERT-A [1]
  IC50: 19600 ± 3600 nM
SmSERT-B
  substrate-elicited transport-associated currents, SmSERT-B: elicits clear transport associated currents
GFP-SmSERT-B [2]
  IC50: 19300 ± 4400 nM
GFP-hSERT [4]
  [3H]-serotonin efflux elicited by compound, hSERT: able to elicit serotonin efflux
GFP-hSERT [3]
  IC50: 1400 ± 100 nM

## CNCCC(Oc1ccc(C(F)(F)F)cc1)c1ccccc1 (centres unmarked) [Fluoxetine]
S. mansoni sporocysts [5]
  production of daughter sporocysts: prevents the production of daughter sporocysts

## CNC(C)Cc1ccc2c(c1)OCO2 (racemic) [(±)MDMA]
GFP-SmSERT-A [1]; [11]
  IC50: 320000 ± 162000 nM
GFP-hSERT [4]
  [3H]-serotonin efflux elicited by compound, hSERT: able to elicit serotonin efflux
GFP-SmSERT-A [6]
  [3H]-serotonin efflux elicited by compound, SmSERT-A: not transported
GFP-SmSERT-B [7]
  [3H]-serotonin efflux elicited by compound, SmSERT-B: not transported
GFP-hSERT [3]; [12]
  IC50: 2700 ± 500 nM

## NCCc1c[nH]c2ccc(O)cc12 [serotonin, 5-hydroxytryptamine]
SmSERT-A; [13]
  charges moved per serotonin molecule transported (Q/Jmax), SmSERT-A: 1.9 charges
SmSERT-A
  substrate-elicited transport-associated currents, SmSERT-A: concentration-dependent inward currents
GFP-SmSERT-B [8]; data not shown
  transport of tritiated substrate by SmSERT-B: transport
GFP-SmSERT-B [8]; mean ± SD of three experiments
  Vmax of serotonin uptake, SmSERT-B: 1.4 ± 1.1 pmol/min
GFP-SmSERT-B [8]; read-out: apparent affinity (KT / KM) for serotonin uptake, SmSERT-B, 10 min, room temperature, mean ± SD of three experiments
  Km: 2.2 ± 1.1 µM
SmSERT-B; [13]
  charges moved per serotonin molecule transported (Q/Jmax), SmSERT-B: 1.9 charges
SmSERT-B
  substrate-elicited transport-associated currents, SmSERT-B: concentration-dependent inward currents
GFP-SmSERT-A [9]; data not shown
  transport of tritiated substrate by SmSERT-A: transport
GFP-SmSERT-A [9]; mean ± SD of three experiments
  Vmax of serotonin uptake, SmSERT-A: 1.8 ± 1.4 pmol/min
GFP-SmSERT-A [9]; read-out: apparent affinity (KT / KM) for serotonin uptake, SmSERT-A, 10 min, room temperature, mean ± SD of three experiments
  Km: 2.3 ± 0.9 µM
S. mansoni sporocysts [10]
  apparent affinity for serotonin uptake in sporocysts: 1.4 µM
S. mansoni adult worms; living adult female parasites
  apparent affinity for serotonin uptake, adult female worms: 1.46 µM
S. mansoni adult worms; living adult male parasites
  apparent affinity for serotonin uptake, adult male worms: 1.73 µM

## CN(C)CCCN1c2ccccc2CCc2ccccc21 [Imipramine]
GFP-SmSERT-A [1]
  IC50: 300 ± 100 nM
GFP-SmSERT-B [2]
  IC50: 300 ± 200 nM

## O=C(C1CCCCC1)N1CC(=O)N2CCc3ccccc3C2C1 (centres unmarked) [praziquantel]
Schistosoma infections
  activity on immature worms and eggs: not active on immature worms and eggs

## C[C@H](N)Cc1ccccc1 [S(+)Amphetamine]
GFP-SmSERT-A [1]; [11]
  IC50: 300000 ± 27000 nM
GFP-SmSERT-A [6]
  [3H]-serotonin efflux elicited by compound, SmSERT-A: not transported
GFP-SmSERT-B [7]
  [3H]-serotonin efflux elicited by compound, SmSERT-B: not transported

## Cl.Cl.Clc1cccc(N2CCNCC2)c1 [m-CPP, m-1-(3-Chlorophenyl)piperazine dihydrochloride]
GFP-SmSERT-A [1]; [11]
  IC50: 58000 ± 4000 nM
GFP-hSERT [4]
  [3H]-serotonin efflux elicited by compound, hSERT: able to elicit serotonin efflux
GFP-SmSERT-A [6]
  [3H]-serotonin efflux elicited by compound, SmSERT-A: not transported
GFP-SmSERT-B [7]
  [3H]-serotonin efflux elicited by compound, SmSERT-B: not transported
GFP-hSERT [3]; [12]
  IC50: 1800 ± 300 nM

## COc1ccc2[nH]cc(C3=CCNCC3)c2c1 [RU 24969]
GFP-SmSERT-A [1]
  IC50: 180000 ± 63000 nM
GFP-SmSERT-B [2]
  IC50: 165000 ± 65000 nM
GFP-hSERT [4]
  [3H]-serotonin efflux elicited by compound, hSERT: able to elicit serotonin efflux
GFP-hSERT [3]
  IC50: 8500 ± 900 nM

## CSc1ccc2c(c1)C(N1CCN(C)CC1)Cc1ccccc1S2 (centres unmarked) [Methiothepin]
GFP-SmSERT-A [1]
  IC50: 1900 ± 700 nM
GFP-SmSERT-B [2]
  IC50: 2200 ± 700 nM
GFP-hSERT [3]
  IC50: 6700 ± 4100 nM

## O=[N+]([O-])c1ccc2nc(N3CCNCC3)ccc2c1 [6-Nitroquipazine]
GFP-SmSERT-A [1]
  IC50: 4 ± 2 nM
  potency difference versus SmSERTs as compared with hSERT (fold less potent at SmSERTs): two-fold
GFP-SmSERT-B [2]
  IC50: 4 ± 2 nM
GFP-hSERT [3]
  IC50: 2 ± 0.4 nM
